Reference: patent US9192656B2, “Methods and compositions for the treatment of cancer” (QUINTESSENCE BIOSCIENCES, INC., priority 2006, dated 2015)

Legend:
[1] = Clinical chemistry and complete blood count plus platelets (DU145 xenograft mice); format: in vivo
Method: Clinical chemistry and a complete blood count (CBC) plus platelets were performed on whole blood and serum samples collected from the mice 24 hours after the last treatment of the prostate xenograft model above. […] Creatinine was also tested and found not to differ. The levels of the liver enzymes, gamma glutamyl transferase (GGT) and alanine transaminase (ALT) in all treatment groups were similar (GGT data not shown.). The values were determined for the various treatment groups of the prostate (DU145) xenograft study for clinical chemistry (A., B.), complete blood count (C., D.), and platelets (F.). Abbreviations: TCO2, amount of bicarbonate ion (HCO3^−); Anion Gap, [Na+K]—[Cl+HCO3]; ALT, alanine aminotransferase; WBC, white blood count; RBC, red blood count; HGB, hemoglobin; RBC HGB, (CHCM×RBC×MCV)/1000); MCH, mean corpuscular hemoglobin; MCHC, mean corpuscular hemoglobin concentration; RDW, red cell distribution width; MPV, mean platelet volume; HCT, hematocrit; MCV, mean corpuscular volume.

[2] = system: human prostate cancer cell line (DU145); assay: In vivo inhibition of tumor growth, DU145 xenograft; design: species or system human tumor cells in nude mice; conditions: Example 4, Table 8, RNase 1 75 mg/kg 1×wk, docetaxel 8 mg/kg once a week
Method: Cells from a non-small cell lung cancer cell line (A549) were grown in nine T175 flasks in F12K media and 10% fetal calf serum until the cells were confluent. 4.5×10^6 cells (in 100 microliters) were injected into the right rear flank of 4-5 week old male homozygous (nu/nu) nude mice (Harlan, Madison Wis.). Tumors were allowed to grow to an average size of ≧75 mm^3 before treatments were initiated. Animals of each tumor type, with the properly sized tumors, were divided into treatment groups, including one set of animals treated weekly with vehicle (phosphate buffered saline, PBS). The vehicle and the test agents were all administered by intraperitoneal injection. Each animal was weighed twice a week during treatment. The tumors were measured twice weekly using calipers. Tumor volume (mm^3) was determined by using the formula for an ellipsoid sphere: […]
The percent tumor growth inhibition (% TGI) is calculated by: […]
This xenograft model was set up as in the previous example except that a human prostate cancer cell line (DU145) was used. The efficacy of wild type human RNase 1 is shown relative to docetaxel. The RNase 1 was administered at 75 mg per kg of body weight of the animal (75 mg/kg 1×wk), while the docetaxel was used at 8 mg/kg once a week. The value of n represents the number of animals in the specific treatment arm of the experiment.
The xenograft model of this example was set up as in the previous example except that a human prostate cancer cell line (DU145) was used. The efficacy of wild type human RNase 1 is shown. The RNase 1 was administered at 75 mg per kg of body weight of the animal once per week (75 mg/kg 1×wk). The value of n represents the number of animals in the specific treatment arm of the experiment.
The xenograft model of this example was set up as in the previous example. The efficacy of wild type human RNase 1 is shown. The RNase 1 was administered at three different doses: (1) 15 mg per kg of body weight of the animal once per week (15 mg/kg 1×wk), (2) 75 mg/kg 1×wk, or (3) 300 mg/kg 1×wk. The value of n represents the number of animals in the specific treatment arm of the experiment.

CC(=O)O[C@@]12CO[C@@H]1C[C@H](O)[C@@]1(C)C(=O)[C@H](O)C3=C(C)[C@@H](OC(=O)[C@H](O)[C@@H](NC(=O)OC(C)(C)C)c4ccccc4)C[C@@](O)([C@@H](OC(=O)c4ccccc4)[C@H]21)C3(C)C [Docetaxel, (2R,3S)-N-carboxy-3-phenylisoserine, N-tert-butyl ester, 13-ester with 5b-20-epoxy-12a,4,7b,10b,13a-hexahydroxytax-11-en-9-one 4-acetate 2-benzoate, trihydrate, reference compound]
Creatinine versus vehicle ([1]; 24 hours after the last treatment): not to differ
Clinical chemistry and complete blood count plus platelets, all tests, versus vehicle ([1]; whole blood and serum 24 hours after the last treatment, Mann-Whitney U test): not to be significantly different
% TGI [2]: 92%
(Final − start) [2]: 180 mm^3
(Final − start)/Control [2]: 0.08
Final volume [2]: 249 mm^3
Starting volume ([2]; at start): 60 mm^3
